Data as given in patent US20250026778A1 (TIUMBIO CO., LTD., priority 2021, published 2025).

Each molecule was assayed against T1, his-galectin-3 (Homo sapiens, UniProt P17931) (assay: TR-FRET assay (in vitro galectin-3 binding inhibitory activity test)). Conditions: Table 1; compound at 20 μM; 60 nM his-galectin-3, 15 nM biotin-ASF; read-out: % Inhibitory activity (at 20 μM).
T1 construct: purchased Abcam
Outline: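 Compound is premixed with his-galectin-3 (60 nM final), then biotin-ASF (15 nM), Tb anti-His antibody (2 nM) and streptavidin-d2 (20 nM) are added. After at least 3.5 hours at RT in HEPES/NaCl buffer with Tween 20 and BSA, TR-FRET is read at 615/665 nm. DMSO serves as the uninhibited control, ASF omission as background.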

T1 sequence (P17931 whole entry): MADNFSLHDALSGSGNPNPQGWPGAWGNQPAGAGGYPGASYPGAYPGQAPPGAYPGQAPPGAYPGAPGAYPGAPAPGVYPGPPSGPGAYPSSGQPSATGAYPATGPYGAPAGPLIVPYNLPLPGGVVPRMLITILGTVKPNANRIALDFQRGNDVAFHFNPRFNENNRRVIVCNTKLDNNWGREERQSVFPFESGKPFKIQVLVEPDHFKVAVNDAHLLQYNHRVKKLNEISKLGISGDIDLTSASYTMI

First: O=C(O[C@@H]1[C@@H](n2cc(-c3cc(F)c(F)c(F)c3)nn2)[C@@H](O)[C@@H](CO)O[C@@]12CCCO2)c1ccccc1Cl [Compound A70, (5S,7R,8R,9S,10R)-8-hydroxy-7-(hydroxymethyl)-9-(4-(3,4,5-trifluorophenyl)-1H-1,2,3-triazol-1-yl)-1,6-dioxaspiro[4.5]decan-10-yl 2-chlorobenzoate]
Second: O=C(O[C@@H]1[C@@H](n2cc(-c3cc(F)c(F)c(F)c3)nn2)[C@@H](O)[C@@H](CO)O[C@@]12CCCO2)c1cccc(F)c1F [Compound A71, (5S,7R,8R,9S,10R)-8-hydroxy-7-(hydroxymethyl)-9-(4-(3,4,5-trifluorophenyl)-1H-1,2,3-triazol-1-yl)-1,6-dioxaspiro[4.5]decan-10-yl 2,3-difluorobenzoate]
The inhibition at 20 µM of the first is lower: < 25% for the first, 25 to 50% for the second.

First: O=C(O[C@@H]1[C@@H](n2cc(-c3cc(F)c(F)c(F)c3)nn2)[C@@H](O)[C@@H](CO)O[C@@]12CCCO2)c1ccccn1 [Compound A72, (5S,7R,8R,9S,10R)-8-hydroxy-7-(hydroxymethyl)-9-(4-(3,4,5-trifluorophenyl)-1H-1,2,3-triazol-1-yl)-1,6-dioxaspiro[4.5]decan-10-yl picolinate]
Second: O=C(O[C@@H]1[C@@H](n2cc(-c3cc(F)c(F)c(F)c3)nn2)[C@@H](O)[C@@H](CO)O[C@@]12CCCO2)c1ncccc1F [Compound A77, (5S,7R,8R,9S,10R)-8-hydroxy-7-(hydroxymethyl)-9-(4-(3,4,5-trifluorophenyl)-1H-1,2,3-triazol-1-yl)-1,6-dioxaspiro[4.5]decan-10-yl 3-fluoropicolinate]
The inhibition at 20 µM of the first is higher: 50 to 75% for the first, 25 to 50% for the second.

`O=C(O[C@@H]1[C@@H](n2cc(-c3cc(F)c(F)c(F)c3)nn2)[C@@H](O)[C@@H](CO)O[C@@]12CCCO2)c1cccc(C(F)(F)F)c1` [Compound A73, (5S,7R,8R,9S,10R)-8-hydroxy-7-(hydroxymethyl)-9-(4-(3,4,5-trifluorophenyl)-1H-1,2,3-triazol-1-yl)-1,6-dioxaspiro[4.5]decan-10-yl 3-(trifluoromethyl)benzoate] and `OC[C@H]1O[C@@]2(CCCO2)[C@H](OCc2cccc(C(F)(F)F)c2)[C@@H](n2cc(-c3cc(F)c(F)c(F)c3)nn2)[C@H]1O` [Compound A90, (5S,7R,8R,9S,10R)-7-(hydroxymethyl)-10-((3-(trifluoromethyl)benzyl)oxy)-9-(4-(3,4,5-trifluorophenyl)-1H-1,2,3-triazol-1-yl)-1,6-dioxaspiro[4.5]decan-8-ol] cannot be ordered by inhibition at 20 µM: < 25% for the first, < 25% for the second.

First: O=P(O)(O)O[C@@H]1[C@@H](n2cc(-c3cc(F)c(F)c(F)c3)nn2)[C@@H](O)[C@@H](CO)O[C@@]12CCCCO2 [Compound A76, (2R,3R,4S,5R,6S)-3-hydroxy-2-(hydroxymethyl)-4-(4-(3,4,5-trifluorophenyl)-1H-1,2,3-triazol-1-yl)-1,7-dioxaspiro[5.5]undecan-5-yl dihydrogen phosphate]
Second: O=C(O[C@@H]1[C@@H](n2cc(-c3cc(F)c(F)c(F)c3)nn2)[C@@H](O)[C@@H](CO)O[C@@]12CCCO2)c1ccncc1 [Compound A80, (5S,7R,8R,9S,10R)-8-hydroxy-7-(hydroxymethyl)-9-(4-(3,4,5-trifluorophenyl)-1H-1,2,3-triazol-1-yl)-1,6-dioxaspiro[4.5]decan-10-yl isonicotinate]
The inhibition at 20 µM of the first is higher: 50 to 75% for the first, 25 to 50% for the second.

`O=C(O[C@@H]1[C@@H](n2cc(-c3cc(F)c(F)c(F)c3)nn2)[C@@H](O)[C@@H](CO)O[C@@]12CCCO2)c1ccc(F)cc1F` [Compound A78, (5S,7R,8R,9S,10R)-8-hydroxy-7-(hydroxymethyl)-9-(4-(3,4,5-trifluorophenyl)-1H-1,2,3-triazol-1-yl)-1,6-dioxaspiro[4.5]decan-10-yl 2,4-difluorobenzoate] and `O=C(O[C@@H]1[C@@H](n2cc(-c3cc(F)c(F)c(F)c3)nn2)[C@@H](O)[C@@H](CO)O[C@@]12CCCO2)c1ccc(F)cc1` [Compound A79, (5S,7R,8R,9S,10R)-8-hydroxy-7-(hydroxymethyl)-9-(4-(3,4,5-trifluorophenyl)-1H-1,2,3-triazol-1-yl)-1,6-dioxaspiro[4.5]decan-10-yl 4-fluorobenzoate] cannot be ordered by inhibition at 20 µM: < 25% for the first, < 25% for the second.

`OC[C@H]1O[C@]2(OCC[C@H]2NCc2cccnc2)[C@H](O)[C@@H](n2cc(-c3cc(F)c(F)c(F)c3)nn2)[C@H]1O` [Compound A85] and `OC[C@H]1O[C@]2(OCC[C@H]2NCc2cccc(Cl)c2)[C@H](O)[C@@H](n2cc(-c3cc(F)c(F)c(F)c3)nn2)[C@H]1O` [Compound A86, (4R,5S,7R,8R,9S,10R)-4-((3-chlorobenzyl)amino)-7-(hydroxymethyl)-9-(4-(3,4,5-trifluorophenyl)-1H-1,2,3-triazol-1-yl)-1,6-dioxaspiro[4.5]decane-8,10-diol] cannot be ordered by inhibition at 20 µM: > 75% for the first, > 75% for the second.

`OC[C@H]1O[C@]2(OCC[C@H]2NCc2ccccc2F)[C@H](O)[C@@H](n2cc(-c3cc(F)c(F)c(F)c3)nn2)[C@H]1O` [Compound A87, (4R,5S,7R,8R,9S,10R)-4-((2-fluorobenzyl)amino)-7-(hydroxymethyl)-9-(4-(3,4,5-trifluorophenyl)-1H-1,2,3-triazol-1-yl)-1,6-dioxaspiro[4.5]decane-8,10-diol] showed an inhibition at 20 µM of 25 to 50%.

Same assay, conditions: Table 3, found values; compound at 20 μM; 60 nM his-galectin-3, 15 nM biotin-ASF; read-out: % Inhibitory activity (at 20 μM)

In the case of `OC[C@H]1O[C@]2(OCC[C@H]2NCc2cccc(Cl)c2)[C@H](O)[C@@H](n2cc(-c3cc(F)c(F)c(F)c3)nn2)[C@H]1O` [Compound A86, (4R,5S,7R,8R,9S,10R)-4-((3-chlorobenzyl)amino)-7-(hydroxymethyl)-9-(4-(3,4,5-trifluorophenyl)-1H-1,2,3-triazol-1-yl)-1,6-dioxaspiro[4.5]decane-8,10-diol], the inhibition at 20 µM is reported as 80.3%.

Same assay, conditions: read-out: % Inhibitory activity (at 20 μM), Table 1; compound at 20 μM; 60 nM his-galectin-3, 15 nM biotin-ASF

Compared with `O=C(O[C@@H]1[C@@H](n2cc(-c3cc(F)c(F)c(F)c3)nn2)[C@@H](O)[C@@H](CO)O[C@@]12CCCO2)c1ccccc1F` [Compound A69, (5S,7R,8R,9S,10R)-8-hydroxy-7-(hydroxymethyl)-9-(4-(3,4,5-trifluorophenyl)-1H-1,2,3-triazol-1-yl)-1,6-dioxaspiro[4.5]decan-10-yl 2-fluorobenzoate], `OC[C@H]1O[C@@]2(CCCO2)[C@H](OCc2cncc(F)c2)[C@@H](n2cc(-c3cc(F)c(F)c(F)c3)nn2)[C@H]1O` [Compound A84, (5S,7R,8R,9S,10R)-10-((5-fluoropyridin-3-yl)methoxy)-7-(hydroxymethyl)-9-(4-(3,4,5-trifluorophenyl)-1H-1,2,3-triazol-1-yl)-1,6-dioxaspiro[4.5]decan-8-ol] is lower in inhibition at 20 µM: 25 to 50% for the first, < 25% for the second.

Compared with `C[C@@H](O[C@@H]1[C@@H](n2cc(-c3cc(F)c(F)c(F)c3)nn2)[C@@H](O)[C@@H](CO)O[C@@]12CCCO2)C(=O)O` [Compound A82, (R)-2-(((5S,7R,8R,9S,10R)-8-hydroxy-7-(hydroxymethyl)-9-(4-(3,4,5-trifluorophenyl)-1H-1,2,3-triazol-1-yl)-1,6-dioxaspiro[4.5]decan-10-yl)oxy)propanoic acid], `C[C@@H](O[C@@H]1[C@@H](n2cc(-c3cc(F)c(F)c(F)c3)nn2)[C@@H](O)[C@@H](CO)O[C@@]12CCCCO2)C(=O)O` [Compound A83, (R)-2-(((2R,3R,4S,5R,6S)-3-hydroxy-2-(hydroxymethyl)-4-(4-(3,4,5-trifluorophenyl)-1H-1,2,3-triazol-1-yl)-1,7-dioxaspiro[5.5]undecan-5-yl)oxy)propanoic acid] is higher in inhibition at 20 µM: < 25% for the first, 25 to 50% for the second.

For `O=C1CCCC2(N1)O[C@H](CO)[C@H](O)[C@H](n1cc(-c3cc(F)c(F)c(F)c3)nn1)[C@H]2O` (stereo partly drawn) [Compound A88, (2R,3R,4S,5R)-3,5-dihydroxy-2-(hydroxymethyl)-4-(4-(3,4,5-trifluorophenyl)-1H-1,2,3-triazol-1-yl)-1-oxa-7-azaspiro[5.5]undecan-8-one], the inhibition at 20 µM was < 25%.
